Reference: US20240417405A1, “Substituted Spiro Derivatives” (Janssen Pharmaceutica NV, priority 2021, published 2024)
Like-named read-outs stand apart in the source and are kept apart here.

Legend:
MOLM14 cells = test: Proliferation assay, spheroid-like growth, MOLM14 (MLL-AF9 rearranged); assay type: cell-based, human; conditions: 8 days, confluence as measure of spheroid size, read-out: spheroid assay_OneTime MOLM14 IC50
Method in brief: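 200 MOLM14 or 300 KO-52 cells/well, ultra-low attachment, compound dilutions, DMSO 0.3%; 8 d, 37 °C, 5% CO2. Read: live-cell imaging confluence (spheroid size) day 8. Absolute IC50, min 0%/max 100% fixed, variable slope.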

[1] = target: T1, menin/MLL (terbium chelate-labeled menin, FITC-MBM1 peptide) (Homo sapiens, UniProt O00255, T541A); test: Menin/MLL homogenous time-resolved fluorescence (HTRF) assay; assay type: binding; conditions: 30 min incubation
T1 construct: Menin (a.a 1-610-6xhis tag)
T1 sequence (O00255 with tags, fused parts or gaps T541A): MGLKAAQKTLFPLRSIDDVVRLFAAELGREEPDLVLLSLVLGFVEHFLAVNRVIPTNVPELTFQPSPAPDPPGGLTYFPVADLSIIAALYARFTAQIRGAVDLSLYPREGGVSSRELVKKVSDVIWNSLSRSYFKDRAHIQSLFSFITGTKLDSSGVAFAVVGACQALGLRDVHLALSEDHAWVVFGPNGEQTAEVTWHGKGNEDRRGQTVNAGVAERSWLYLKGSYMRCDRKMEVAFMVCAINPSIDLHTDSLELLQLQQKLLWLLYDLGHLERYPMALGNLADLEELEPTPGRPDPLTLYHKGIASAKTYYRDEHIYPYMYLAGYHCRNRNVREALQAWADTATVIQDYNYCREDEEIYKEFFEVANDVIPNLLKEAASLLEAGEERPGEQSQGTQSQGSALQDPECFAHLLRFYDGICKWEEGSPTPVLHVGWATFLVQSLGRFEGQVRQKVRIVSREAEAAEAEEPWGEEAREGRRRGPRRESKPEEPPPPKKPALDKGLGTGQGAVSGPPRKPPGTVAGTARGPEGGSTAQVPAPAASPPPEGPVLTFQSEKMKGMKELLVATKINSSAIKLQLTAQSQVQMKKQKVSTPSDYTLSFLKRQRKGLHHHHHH
Method in brief: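 Tb-cryptate menin (1-610, 6xHis) 200 pM + cmpd, 30 min RT; + FITC-MBM1 75 nM, 15 min RT. 40 mM Tris pH 7.5, 50 mM NaCl, 1 mM DTT, 0.05% Pluronic F-127, 0.5% DMSO. HTRF 520/490; 11-pt 4-fold from 10 μM; IC50 fit.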

Row | IC50 (MOLM14 cells; Homo sapiens, MOLM-14, 192 h) [nM] | IC50 [1] [nM] | IC50 (MOLM14 cells) [nM] | Compound
1 | 20 | 0.11 |  | CNC(=O)c1ccnc(N[C@H]2C[C@@H]([C@@H](C(C)C)N3CC4(CCN(c5ncnnc5Oc5ccc(F)cc5-c5cncnc5C5CC5)C4)C3)C2)n1 (single isomer, unassigned) [Compound 452]
2 | 6 | 0.05 |  | CNC(=O)c1csc(N[C@H]2C[C@@H]([C@@H](C(C)C)N3CC4(CCN(c5ncnnc5Oc5ccc(F)cc5-c5cncnc5C5CC5)C4)C3)C2)n1 (single isomer, unassigned) [Compound 453]
3 | 13 | 0.17 |  | CC(=O)Nc1nnc(N[C@H]2C[C@@H]([C@@H](C(C)C)N3CC4(CCN(c5ncnnc5Oc5ccc(F)cc5-c5cncnc5C5CC5)C4)C3)C2)s1 (single isomer, unassigned) [Compound 454]
4 | 24 | 0.14 |  | CNC(=O)c1cnc(N[C@H]2C[C@@H]([C@H](C)N3CC4(CCN(c5ncnnc5Oc5ccc(F)cc5-c5cncnc5C5CC5)C4)C3)C2)s1 (single isomer, unassigned) [Compound 455]
5 | 27 | 0.16 |  | CC(C)C([C@H]1C[C@@H](Nc2n[nH]c3ncncc23)C1)N1CC2(CCN(c3ncnnc3Oc3ccc(F)cc3-c3cncnc3C3CC3)C2)C1 (single isomer, unassigned) [Compound 458]
6 | 11 | 0.07 |  | CNC(=O)c1oc(N[C@H]2C[C@@H](C(C(C)C)N3CC4(CCN(c5ncnnc5Oc5ccc(F)cc5-c5cncnc5C5CC5)C4)C3)C2)nc1C (single isomer, unassigned) [Compound 460]
7 | 63 | 0.2 |  | CNC(=O)c1coc(N[C@H]2C[C@@H](C(C)N3CC4(CCN(c5ncnnc5Oc5ccc(F)cc5-c5cncnc5C5CC5)C4)C3)C2)n1 (single isomer, unassigned) [Compound 461]
8 | 89 | 0.27 |  | CC(C)[C@H]([C@H]1C[C@@H](Nc2ccc3[nH]c(=O)[nH]c3c2)C1)N1CC2(CCN(c3ncnnc3Oc3ccc(F)cc3-c3cncnc3C3CC3)C2)C1 (single isomer, unassigned) [Compound 462]
9 | 29 | 0.082 |  | CC(C)[C@H]([C@H]1C[C@@H](Nc2ccnc(N)n2)C1)N1CC2(CCN(c3ncnnc3Oc3ccc(F)cc3-c3cncnc3C3CC3)C2)C1 (single isomer, unassigned) [Compound 463]
10 | 6 | 0.15 |  | CCOC(=O)c1coc(N[C@H]2C[C@@H]([C@@H](C(C)C)N3CC4(CCN(c5ncnnc5Oc5ccc(F)cc5-c5cncnc5C5CC5)C4)C3)C2)n1 (single isomer, unassigned) [Compound 480]
11 | > 940 | 0.14 |  | CCOC(=O)c1nnc(N[C@H]2C[C@@H](C(C(C)C)N3CC4(CCN(c5ncnnc5Oc5ccc(F)cc5-c5cncnc5C5CC5)C4)C3)C2)o1 (single isomer, unassigned) [Compound 481]
12 | 15 | 0.18 |  | CCOC(=O)c1nnc(N[C@H]2C[C@@H](C(C(C)C)N3CC4(CCN(c5ncnnc5Oc5ccc(F)cc5-c5cncnc5C5CC5)C4)C3)C2)s1 (single isomer, unassigned) [Compound 482]
13 | 17 | 0.07 |  | CCOC(=O)c1sc(N[C@H]2C[C@@H](C(C(C)C)N3CC4(CCN(c5ncnnc5Oc5ccc(F)cc5-c5cncnc5C5CC5)C4)C3)C2)nc1C (single isomer, unassigned) [Compound 483]
14 | 4 | 0.15 |  | CC(C)C([C@H]1C[C@@H](Nc2nnc(N)s2)C1)N1CC2(CCN(c3ncnnc3Oc3ccc(F)cc3-c3cncnc3C3CC3)C2)C1 (single isomer, unassigned) [Compound 488]
15 | 4.9 | 0.13 |  | CC(C)C([C@H]1C[C@@H](NC(=O)OC(C)(C)C)C1)N1CC2(CCN(c3ncnnc3Oc3ccc(F)cc3-c3cncnc3C3CC3)C2)C1 (single isomer, unassigned) [Compound 491a]
16 | 42 | 0.5 |  | CC(C)C([C@H]1C[C@@H](N2CC3(COC3)C2)C1)N1CC2(CCN(c3ncnnc3Oc3ccc(F)cc3-c3ncc(C#N)cc3C3CC3)C2)C1 (some centres unmarked) [Compound 140]
17 | 51 | 0.5 |  | CC(=O)N1CCN([C@H]2C[C@@H](C(C(C)C)N3CC4(CCN(c5ncnnc5Oc5ccc(F)cc5-c5cnc(C#N)nc5C5CC5)C4)C3)C2)CC1 (some centres unmarked) [Compound 169]

Row | IC50 (MOLM14 cells; Homo sapiens, MOLM-14, 192 h) [nM] | IC50 [1] [nM] | IC50 (MOLM14 cells) [nM] | Compound
18 | 160 | 0.4 |  | CC(=O)N[C@H]1C[C@@H](C(C(C)C)N2CC3(CCN(c4ncnnc4Oc4ccc(F)cc4-c4nnccc4C4CC4)C3)C2)C1 (some centres unmarked) [Compound 183]
19 | 1040 | 4.8 |  | CC(C)C([C@H]1C[C@@H](Nc2ncccn2)C1)N1CC2(CCN(c3ncnnc3Oc3ccc(F)cc3-c3cncnc3C3CC3)C2)C1 (some centres unmarked) [Compound 192]
20 |  | 0.055 | 4 | CC(=O)N1CC2CN([C@H]3C[C@@H]([C@H](C(C)C)N4CC5(CCN(c6ncnnc6Oc6ccc(F)cc6-c6cnc(C)nc6C6CC6)C5)C4)C3)CC2C1 (some centres unmarked) [Compound 375]
21 | 100 | 0.62 |  | CC(=O)N1CC2CN([C@H]3C[C@H]([C@H](C(C)C)N4CC5(CCN(c6ncnnc6Oc6ccc(F)cc6-c6cnc(C)nc6C6CC6)C5)C4)C3)CC2C1 (some centres unmarked) [Compound 376]
22 |  | 0.106 | 1.6 | CC(=O)N1CC2CN([C@H]3C[C@@H]([C@H](C(C)C)N4CC5(CCN(c6ncnnc6Oc6ccc(F)cc6-c6cnc(C)nc6C6CC6)C5)C4)C3)CC2C1 (some centres unmarked) [Compound 378]
23 | 3.7 | 0.16 |  | Cc1ncc(-c2cc(F)ccc2Oc2nncnc2N2CCC3(C2)CN([C@@H](C(C)C)[C@H]2C[C@@H](N4CCC5(CN(C(=O)C6CC6)C5)C4)C2)C3)c(C2CC2)n1 [Compound 380]
24 | 8.1 | 0.14 |  | CC(=O)N1CC2(CCN([C@H]3C[C@@H]([C@H](C(C)C)N4CC5(CCN(c6ncnnc6Oc6ccc(F)cc6-c6cnc(C)nc6C6CC6)C5)C4)C3)C2)C1 [Compound 381]
25 | 7 | 0.08 |  | Cc1ncc(-c2cc(F)ccc2Oc2nncnc2N2CCC3(C2)CN([C@@H](C(C)C)[C@H]2C[C@@H](N4CCC5(COC5)C4)C2)C3)c(C2CC2)n1 [Compound 382]
26 | 2.3 | 0.04 |  | Cc1ncc(-c2cc(F)ccc2Oc2nncnc2N2CCC3(C2)CN([C@@H](C(C)C)[C@H]2C[C@@H](N4CC[C@H](C(=O)N(C)C)C4)C2)C3)c(C2CC2)n1 [Compound 383]
27 | 0.7 | 0.085 |  | Cc1ncc(-c2cc(F)ccc2Oc2nncnc2N2CCC3(C2)CN([C@@H](C(C)C)[C@H]2C[C@@H](N4CC[C@H](C(=O)NC5CC5)C4)C2)C3)c(C2CC2)n1 [Compound 384]
28 | < 1.8 | 0.026 |  | Cc1ncc(-c2cc(F)ccc2Oc2nncnc2N2CCC3(C2)CN([C@@H](C(C)C)[C@H]2C[C@@H](N4C[C@@H]5[C@H](C4)[C@H]5NC(=O)C4CC4)C2)C3)c(C2CC2)n1 [Compound 385]
29 | < 1.8 | 0.059 |  | Cc1ncc(-c2cc(F)ccc2Oc2nncnc2N2CCC3(C2)CN([C@@H](C(C)C)[C@H]2C[C@@H](N4CC[C@@H](NC(=O)C5CC5)C4)C2)C3)c(C2CC2)n1 [Compound 386]
30 | < 1.8 | 0.026 |  | Cc1ncc(-c2cc(F)ccc2Oc2nncnc2N2CCC3(C2)CN([C@@H](C(C)C)[C@H]2C[C@@H](N4CC[C@H](NC(=O)C5CC5)C4)C2)C3)c(C2CC2)n1 [Compound 387]
31 | < 1.8 | 0.027 |  | CC(=O)N[C@H]1CCN([C@H]2C[C@@H]([C@H](C(C)C)N3CC4(CCN(c5ncnnc5Oc5ccc(F)cc5-c5cnc(C)nc5C5CC5)C4)C3)C2)C1 [Compound 388]
32 | 2 | 0.046 |  | CC(=O)N[C@@H]1CCN([C@H]2C[C@@H]([C@H](C(C)C)N3CC4(CCN(c5ncnnc5Oc5ccc(F)cc5-c5cnc(C)nc5C5CC5)C4)C3)C2)C1 [Compound 389]
33 | 4 | 0.18 |  | CC(=O)N[C@H]1[C@@H]2CN([C@H]3C[C@@H]([C@H](C(C)C)N4CC5(CCN(c6ncnnc6Oc6ccc(F)cc6-c6cnc(C)nc6C6CC6)C5)C4)C3)C[C@@H]21 [Compound 390]
34 | < 1.8 | 0.057 |  | Cc1ncc(-c2cc(F)ccc2Oc2nncnc2N2CCC3(C2)CN([C@@H](C(C)C)[C@H]2C[C@@H](N4CC5(CN(C(=O)C6(F)CC6)C5)C4)C2)C3)c(C2CC2)n1 [Compound 391]
